Measured values published in patent publication US20210290648A1, “Potentiation of B-Lactam Antibiotics and B-Lactam/B-Lactamase Inhibitor Combinations Against Multidrug and Extensively Drug-Resistant Pseudomonas Aeruginosa Using Non-Ribosomal Tobramycin-Cyclam Conjugates” (University of Manitoba, priority 2018, published 2021).

How the values were obtained:
PA 91433 = assay: Checkerboard combination study / MIC; type: cell-based, Pseudomonas aeruginosa; conditions: for MICCombination (2) / FIC2: PA 91433
[1] = tested on: MDR PA101885-challenged larvae; assay: Galleria mellonella infection model, efficacy; type: in vivo
Description: In vivo synergistic effects were determined using Galleria mellonella infection model, as previously described (20). Briefly, worms were purchased from The Worm Lady® Live Feeder (ON, Canada), stored in their natural habitat at 16° C., and used within 10 days of delivery. The worms (average weight of 250 mg) were used for tolerability and efficacy studies. Tolerability study was performed by injecting 10 μL of antimicrobial agents only at concentrations equivalent to 100 mg/kg or 200 mg/kg. The worms (ten in each group) were incubated at 37° C. and monitored for 96 h. For efficacy studies, the virulence and bacterial load required to kill 100% of the worms within 12-18 h (with no treatment) was first determined, which is approximately 5 CFU. Overnight grown culture of respective MDR P. aeruginosa isolate was standardized to 0.5 McFarland standard and diluted in PBS to a final concentration of 5×10^2CFU/mL. 10 μL of this solution (5 CFU) was injected into each worm and incubated for 3 h at 37° C. […] Worms treated with 10 μL PBS or high concentrations of test antibiotics served as negative and positive control, respectively. The worms were incubated at 37° C. in Petri dishes lined with filter paper and scored for survivability every 6 h for up to 48 h. This experiment was repeated to give a total of thirty worms (n=30) in each case. Survival data curves were plotted using Kaplan-Meier survival analysis.

PA 260 = assay: Checkerboard combination study / MIC; type: cell-based, Pseudomonas aeruginosa
PA108590 = assay: MIC / triple combination susceptibility; type: cell-based, Pseudomonas aeruginosa; conditions: triple combination with avibactam and compound 2 (8 μM each); ceftazidime, aztreonam, meropenem
Excerpt: The diazabicyclooctane β-lactamase inhibitor, avibactam, is able to inhibit a wide range of serine β-lactamases (class A, C, and D) but not metallo-β-lactamases (class B) (50, 51).^50,51 However, the high concentration of avibactam required to neutralize the effects of β-lactamase enzymes in these phenotypes is indicative of concomitant permeability barriers in the isolates, such as reduced porin uptake. […] The results of this study are shown in (FIG. 6). All isolates were resistant to all three β-lactam antibiotics used for the study. […] As expected, the study with meropenem was slightly different from others.
Antimicrobial Susceptibility Assay. The in vitro antimicrobial activity of all compounds/antibiotics against a panel of bacteria was evaluated by microbroth dilution method in accordance with the Clinical and Laboratory Standards Institute (CLSI) guidelines. […]
Checkerboard Assay. […] After incubation, the plates were read on EMax® Plus microplate reader (Molecular Devices, Sunnyvale, Calif., USA) at 590 nm. MIC was recorded as wells with the lowest concentration of drugs with no bacterial growth. The fractional inhibitory concentration (FIC) for each antibiotic was calculated by dividing the MIC of the antibiotic in the presence of adjuvant by the MIC of the antibiotic alone. […]

MSSE CANWARD-2008 81388 = assay: MIC, microbroth dilution; type: cell-based; conditions: standalone
Description: (§1) Antimicrobial Susceptibility Assay. The in vitro antimicrobial activity of all compounds/antibiotics against a panel of bacteria was evaluated by microbroth dilution method in accordance with the Clinical and Laboratory Standards Institute (CLSI) guidelines. Overnight grown bacterial cultures were diluted in saline to achieve a 0.5 McFarland turbidity, followed by 1:50 dilution in Mueller-Hinton broth (MHB) for inoculation to a final concentration of approximately 5×10^5CFU/mL. The antimicrobial agents were 2-fold serially diluted in MHB in a 96-well plate and incubated at 37° C. with equal volumes of inoculum for 18 h. The lowest concentration that prevented the visible growth of bacteria was defined as the MIC for each antimicrobial agent. The broth with or without bacterial cells was used as positive or negative control, respectively.

MRSA ATCC 33592 = assay: MIC, microbroth dilution; type: cell-based; conditions: standalone
Description: as §1

[2] = tested on: MDR PA108590-challenged larvae; assay: Galleria mellonella infection model, efficacy; type: in vivo; conditions: ceftazidime+avibactam+compound 2, 1.56+1.56+3.12 mg/kg
Excerpt: In vivo larvae-infection model.

MDR PA108590 = assay: Time-kill assay, triple combination; type: cell-based, Pseudomonas aeruginosa

5-O-(Octylcyclam)-tobramycin.9TFA [Compound 2]
MICCombination (2) (PA 91433; MIC of 2 combined with AZT): 16 µg/mL
MICCombination (2) (PA 91433; MIC of 2 combined with CAZ): 0.25 µg/mL
MICCombination (2) (PA 91433; MIC of 2 combined with CEF): 16 µg/mL
MICCombination (2) (PA 91433; MIC of 2 combined with DOR): 8 µg/mL
MICCombination (2) (PA 91433; MIC of 2 combined with MER): 4 µg/mL
potentiation of meropenem (PA 91433; by compound 2, colistin-resistant clinical isolate PA91433): 64 fold
FIC2 (PA 91433; with AZT): <0.0625
FIC2 (PA 91433; with CAZ): <0.0010
FIC2 (PA 91433; with CEF): <0.0625
FIC2 (PA 91433; with DOR): <0.0313
FIC2 (PA 91433; with MER): <0.0156
mortality of larvae, monotherapy ([1]; aztreonam […], meropenem 37.5 mg/kg, compound 2 100 mg/kg, after 24 h): 100%
activity by itself against MDR PA101885 ([1]; in vitro and in vivo): innately inactive
survival of larvae ([1]; meropenem + compound 2, 25+25 mg/kg, after 24 h): 0%
survival of larvae ([1]; meropenem + compound 2, 37.5+37.5 mg/kg, after 24 h): 85%
MICCombination (2) (PA 260; MIC of 2 combined with AZT): 16 µg/mL
MICCombination (2) (PA 260; MIC of 2 combined with CAZ): 4 µg/mL
MICCombination (2) (PA 260; MIC of 2 combined with CEF): 8 µg/mL
MICCombination (2) (PA 260; MIC of 2 combined with DOR): 8 µg/mL
MICCombination (2) (PA 260; MIC of 2 combined with MER): 8 µg/mL
MICCombination (2) (PA 260; MIC of 2 combined with PIP): 16 µg/mL
FIC2 (PA 260; with AZT): <0.0625
FIC2 (PA 260; with CAZ): <0.0156
FIC2 (PA 260; with CEF): <0.0313
FIC2 (PA 260; with DOR): <0.0313
FIC2 (PA 260; with MER): <0.0313
FIC2 (PA 260; with PIP): <0.0625
potentiation of all three β-lactam antibiotics (PA108590): 128 fold
MIC (MSSE CANWARD-2008 81388): 16 µg/mL
MIC (MRSA ATCC 33592): 64 µg/mL
survival of larvae ([2]; after 24 h): 100%
survival of larvae ([2]; after 36 h): 95%
bacterial counts lower than ceftazidime+avibactam (MDR PA108590; ceftazidime + avibactam + compound 2, after 3 h): > 2 Log
time to sterilization of bacteria culture (MDR PA108590; triple combination ceftazidime + avibactam + compound 2, limit of detection 10 CFU/mL): ≤ 3 h
reduction in total CFU/mL from original inoculum (MDR PA108590; triple combination ceftazidime + avibactam + compound 2, within 3 h): 6 Log
